Assay results reported in patent US20110097741A1, “PARTIAL T1R2 NUCLEIC ACID SEQUENCE, RECEPTOR PROTEIN AND ITS USE IN SCREENING ASSAYS” (priority 2006, published 2011).

Legend:
[1] = target: T1, T1R2-TMD (Homo sapiens, UniProt Q8TE23); assay: Fluo-4 calcium assay in HEK293 cells stably expressing G16gust44 and T1R2-TMD; type: cell-based
T1 construct: first 45 amino acids of rat somatostatin type 3 receptor plus linker) (N); expressed in transfected cells; host or cells: HEK-293-T-Rex based cell line stably expressing G16gust44
T1 sequence (Q8TE23 564-839): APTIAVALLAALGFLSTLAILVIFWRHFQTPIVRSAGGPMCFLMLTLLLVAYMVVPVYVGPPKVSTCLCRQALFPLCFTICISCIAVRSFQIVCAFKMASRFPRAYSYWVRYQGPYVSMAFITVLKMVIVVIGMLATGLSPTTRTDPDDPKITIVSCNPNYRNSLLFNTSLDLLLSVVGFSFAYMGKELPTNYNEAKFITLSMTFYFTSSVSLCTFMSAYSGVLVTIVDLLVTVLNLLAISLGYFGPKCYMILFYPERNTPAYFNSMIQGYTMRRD
Description: (§1) All examples use the human receptors.
Fluo-4 is a fluorescent indicator for intracellular calcium and allows to determine changes in the calcium concentration, in particular an increase in response to receptor activation occurring after ligand addition (for example perillartine or methyl chavicol).
HEK293 cells stably expressing G alpha 16 gustducin 44 and transfected with T1R2-TMD as described in example 3 were used as host cells.
Black, clear-bottom 96-well plates were used for all assays. They were seeded the day before with 8500 transfected cells per well and maintained at 37° C. overnight in a growth medium appropriate for the cells used. For HEK293 cells, Dulbecco's Modified Eagle medium containing high glucose, L-glutamine, pyroxidine hydrochloride, and supplemented with 10% fetal bovine serum was used for growth and maintenance of the HEK293 cells.
(§2) At the time of the assay, the growth medium was discarded and cells were incubated for 1 hour (at 37° C. in the dark) with 50 μl of a calcium assay solution consisting of 1.5 μM Fluo-4 AM (Molecular Probes™, Invitrogen, US) and 2.5 μM probenicid (Sigma-Aldrich) dissolved in a C1 buffer solution. C1 buffer solution contains 130 mM NaCl, 5 mM KCl, 10 mM Hepes, 2 mM CaCl2 and 10 mM glucose (pH 7.4).
After the initial 1 hour loading period, the plates were washed 5 times with 100 μl per well of C1 buffer using an automated plate washer (BioTek) and after washing, the plate was further incubated for 30 minutes at room temperature in the dark to allow for complete de-esterification of the Fluo-4-AM. […]
(§3) For assay reading, the plate was placed in a FLIPR (fluorescence imaging plate reader (FLIPR-Tetra, Molecular Devices)), and receptor activation was initiated following addition of 20 μl of a 10× concentrated ligand stock solution.
(§4) Fluorescence was continuously monitored for 15 seconds prior to ligand addition and for 105 seconds after ligand addition (45-105 sec may be sufficient). […]
(§5) Fluorescence Increase=Maximum Fluorescence−baseline fluorescence,
wherein the baseline fluorescence represents the mean fluorescence calculated for the first 10 to 15 seconds prior to ligand addition.
As a negative control, mock transfected cells were exposed to the same concentration of ligand and the concentration of calcium traces not corresponding to a signal was determined. […]
The data was calculated as described in example 1 and illustrated the net increase in fluorescence over baseline following stimulation of the cells with 50 μM perillartine. […]
HEK293T cells that stably express G16gust44 and T1R2-TMD (formed as described in example 3) are loaded with the calcium dye Fluo-4, and their response to perillartine is measured by using fluorescent calcium signals as described in example 1. […]

[2] = test system: host cells expressing only the G16gust44 chimeric G-protein; assay: Fluo-4 calcium assay in negative control cells expressing G16gust44 only; type: cell-based, human
Description: As a negative control, mock transfected cells were exposed to the same concentration of ligand and the concentration of calcium traces not corresponding to a signal was determined.
As a result of said evalution, it was determined that when these cell lines are exposed to perillartine, many of cell clones respond to this stimulus with a significant increase in fluorescence which is greater than 10-times of the signal compared to the signal of the negative control (cells that express solely G16gust44 promiscuous G-protein but not T1R2-TMD).
The signals elicited by the test agents in cells that stably express G16gust44 and T1R2-TMD containing cells (formed as described in example 3) were compared to the signals obtained in cells that stably express G16gust44 and the T1R2/T1R3 heterodimer (formed as described in example 4), and as a negative control, cells that stably express G16gust44 were used.

[3] = target: T2, T1R2/T1R3 heterodimer (Homo sapiens, UniProt Q8TE23); assay: Fluo-4 calcium assay in cells stably expressing G16gust44 and the T1R2/T1R3 heterodimer; type: cell-based; settings: 4-parameter logistic fit
T2 construct: expressed in transfected cells; host or cells: HEK-293-T-Rex based cell line stably expressing G16gust44
T2 sequence (Q8TE23 20-839): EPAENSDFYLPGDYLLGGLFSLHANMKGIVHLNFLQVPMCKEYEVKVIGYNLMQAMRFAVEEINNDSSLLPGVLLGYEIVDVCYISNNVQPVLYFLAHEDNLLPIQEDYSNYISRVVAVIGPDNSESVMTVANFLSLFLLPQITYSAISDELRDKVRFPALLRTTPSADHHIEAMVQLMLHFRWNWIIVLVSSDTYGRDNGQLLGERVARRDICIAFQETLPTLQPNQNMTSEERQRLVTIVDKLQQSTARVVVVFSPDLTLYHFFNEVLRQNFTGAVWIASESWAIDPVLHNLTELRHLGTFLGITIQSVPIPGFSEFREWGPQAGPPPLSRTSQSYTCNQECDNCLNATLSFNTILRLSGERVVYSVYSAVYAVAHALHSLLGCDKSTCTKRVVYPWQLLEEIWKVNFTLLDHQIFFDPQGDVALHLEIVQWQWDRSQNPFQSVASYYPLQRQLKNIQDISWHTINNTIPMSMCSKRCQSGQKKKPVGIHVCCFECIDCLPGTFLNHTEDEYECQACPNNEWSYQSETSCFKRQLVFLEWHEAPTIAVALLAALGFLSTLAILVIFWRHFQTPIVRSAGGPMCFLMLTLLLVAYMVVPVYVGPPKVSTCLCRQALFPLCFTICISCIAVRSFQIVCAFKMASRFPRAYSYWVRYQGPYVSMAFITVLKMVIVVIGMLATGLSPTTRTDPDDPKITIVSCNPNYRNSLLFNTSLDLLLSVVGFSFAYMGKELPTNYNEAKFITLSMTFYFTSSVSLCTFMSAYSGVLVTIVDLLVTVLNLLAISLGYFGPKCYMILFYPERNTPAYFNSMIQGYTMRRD
T2 sequence (Q7RTX0 21-852 C757R partner): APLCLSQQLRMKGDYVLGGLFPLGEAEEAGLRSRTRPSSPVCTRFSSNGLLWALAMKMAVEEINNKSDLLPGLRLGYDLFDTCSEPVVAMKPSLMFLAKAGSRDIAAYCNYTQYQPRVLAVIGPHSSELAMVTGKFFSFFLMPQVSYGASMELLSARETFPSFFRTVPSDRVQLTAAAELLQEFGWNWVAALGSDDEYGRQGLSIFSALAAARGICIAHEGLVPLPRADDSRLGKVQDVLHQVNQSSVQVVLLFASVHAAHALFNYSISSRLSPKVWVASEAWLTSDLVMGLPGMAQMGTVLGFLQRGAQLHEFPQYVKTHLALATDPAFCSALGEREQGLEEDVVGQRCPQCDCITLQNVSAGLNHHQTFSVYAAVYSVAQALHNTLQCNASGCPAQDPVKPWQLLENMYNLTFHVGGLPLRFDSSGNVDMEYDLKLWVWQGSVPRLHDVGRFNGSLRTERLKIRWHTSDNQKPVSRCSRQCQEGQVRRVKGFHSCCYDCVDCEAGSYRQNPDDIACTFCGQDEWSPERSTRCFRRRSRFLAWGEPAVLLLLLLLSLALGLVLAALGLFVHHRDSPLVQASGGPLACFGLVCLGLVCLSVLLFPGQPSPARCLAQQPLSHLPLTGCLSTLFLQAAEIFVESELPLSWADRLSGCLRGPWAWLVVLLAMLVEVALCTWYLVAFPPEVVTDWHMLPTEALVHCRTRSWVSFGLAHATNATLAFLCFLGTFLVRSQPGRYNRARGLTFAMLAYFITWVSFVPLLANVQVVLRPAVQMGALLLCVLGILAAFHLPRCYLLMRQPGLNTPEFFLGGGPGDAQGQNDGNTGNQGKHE
Description: as §1
as §2, with “7.4). […]” for “7.4).”
as §3, §4, §5
wherein the baseline fluorescence represents the mean fluorescence calculated for the first 10 to 15 seconds prior to ligand addition. […]
Resistant colonies were expanded, and identified as containing the T1R2/T1R3 sweet heterodimer by their response to various sweetener compounds including sucrose, sucralose, aspartame and acesulfame K, which was determined via automated fluorimetric imaging on the FLIPR-Tetra instrumentation (Molecular Devices) using the methods described in example 1. […]

Row | Structure (SMILES) | calcium signaling upon stimulation ([1]; 50 μM, cells stably expressing human T1R2-TMD, not in negative control) | AVERAGE [RFU] (net increase in fluorescence over baseline) ([1]; T1R2-TMD/G16gust44 cells, 50 μM perillartine, no tetracycline induction) | EC50 ([1]; T1R2-TMD, 4-parameter logistic fit, doses 0.1 to 200 micromolar) [µM] | increase in fluorescence, signal compared to the signal of the negative control ([1]; many cell clones, 50 μM perillartine, absence of tetracycline induction, vs cells expressing solely G16gust44) | AVERAGE [RFU] (net increase in fluorescence over baseline) ([2]; G16gust44 ONLY (neg. control) cells, 50 μM perillartine) | EC50 [3] [µM] | Negative control [RFU] ([2]; 100 micromolar, cells stably expressing G16gust44 only, average of two replicates)
1 | C=C(C)[C@@H]1CC=C(/C=N/O)CC1 [perillartine] | Significant increases | 973.06 | 6.2 | greater than 10 times | 73.78 | 3.5 | 
2 | C=CCc1ccc(OC)cc1 [Methyl chavicol] |  |  |  |  |  |  | 732.195
